# ChEMBL document CHEMBL1155491, “Acylurea connected straight chain hydroxamates as novel histone deacetylase inhibitors: Synthesis, SAR, and in vivo antitumor activity” (Bioorg Med Chem Lett, 2010)
# The source made the active and inactive calls. No cut-off for these calls is given here.
# How the values were obtained:
# Histone deacetylase 8 = molecular target: T1, Histone deacetylase 8 (Homo sapiens, UniProt Q9BY41); assay: Inhibition of HDAC8
# T1 sequence (Q9BY41 whole entry): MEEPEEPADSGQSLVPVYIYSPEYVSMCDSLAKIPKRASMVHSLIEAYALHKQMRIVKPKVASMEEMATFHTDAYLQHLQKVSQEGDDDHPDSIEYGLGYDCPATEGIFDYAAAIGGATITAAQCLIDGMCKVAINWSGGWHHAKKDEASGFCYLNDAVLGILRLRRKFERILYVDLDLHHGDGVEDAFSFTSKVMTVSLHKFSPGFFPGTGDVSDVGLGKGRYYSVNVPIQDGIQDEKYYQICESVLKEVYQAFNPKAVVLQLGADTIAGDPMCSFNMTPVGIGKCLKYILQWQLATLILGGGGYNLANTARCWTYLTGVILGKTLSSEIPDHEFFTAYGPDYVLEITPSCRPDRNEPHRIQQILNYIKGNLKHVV
# Histone deacetylase 2 = Histone deacetylase 2 (Homo sapiens, UniProt Q92769)
# Chain of Histone deacetylase 2 (Q92769 whole entry): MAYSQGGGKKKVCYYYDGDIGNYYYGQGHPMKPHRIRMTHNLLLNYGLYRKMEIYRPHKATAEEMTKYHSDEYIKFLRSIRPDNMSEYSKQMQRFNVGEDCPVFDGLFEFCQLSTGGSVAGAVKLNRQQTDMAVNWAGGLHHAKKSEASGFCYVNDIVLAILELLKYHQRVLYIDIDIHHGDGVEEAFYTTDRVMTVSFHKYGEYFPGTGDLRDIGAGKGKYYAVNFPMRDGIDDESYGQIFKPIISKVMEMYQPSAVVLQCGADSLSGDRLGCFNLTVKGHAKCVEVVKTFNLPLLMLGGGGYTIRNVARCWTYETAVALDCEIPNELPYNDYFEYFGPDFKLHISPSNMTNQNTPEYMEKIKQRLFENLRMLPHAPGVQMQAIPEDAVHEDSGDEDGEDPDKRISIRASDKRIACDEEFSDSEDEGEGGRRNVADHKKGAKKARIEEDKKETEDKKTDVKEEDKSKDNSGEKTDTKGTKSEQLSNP
# Histone deacetylase 3 = Histone deacetylase 3 (Homo sapiens, UniProt O15379); assay: Inhibition of HDAC3
# Chain of Histone deacetylase 3 (O15379 whole entry): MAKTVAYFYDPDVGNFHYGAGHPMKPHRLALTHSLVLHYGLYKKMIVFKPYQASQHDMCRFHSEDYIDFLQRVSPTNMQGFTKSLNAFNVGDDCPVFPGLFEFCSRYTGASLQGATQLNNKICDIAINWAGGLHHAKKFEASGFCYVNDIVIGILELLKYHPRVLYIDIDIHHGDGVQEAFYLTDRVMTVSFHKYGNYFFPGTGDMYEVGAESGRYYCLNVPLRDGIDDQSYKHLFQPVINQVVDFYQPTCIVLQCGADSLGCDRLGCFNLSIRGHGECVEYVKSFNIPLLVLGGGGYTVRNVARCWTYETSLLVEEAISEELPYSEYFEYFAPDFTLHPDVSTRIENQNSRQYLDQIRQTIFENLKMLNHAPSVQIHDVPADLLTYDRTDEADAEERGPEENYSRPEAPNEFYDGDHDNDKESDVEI
# Histone deacetylase 5 = Histone deacetylase 5 (Homo sapiens, UniProt Q9UQL6); assay: Inhibition of HDAC5
# Chain of Histone deacetylase 5 (Q9UQL6 whole entry): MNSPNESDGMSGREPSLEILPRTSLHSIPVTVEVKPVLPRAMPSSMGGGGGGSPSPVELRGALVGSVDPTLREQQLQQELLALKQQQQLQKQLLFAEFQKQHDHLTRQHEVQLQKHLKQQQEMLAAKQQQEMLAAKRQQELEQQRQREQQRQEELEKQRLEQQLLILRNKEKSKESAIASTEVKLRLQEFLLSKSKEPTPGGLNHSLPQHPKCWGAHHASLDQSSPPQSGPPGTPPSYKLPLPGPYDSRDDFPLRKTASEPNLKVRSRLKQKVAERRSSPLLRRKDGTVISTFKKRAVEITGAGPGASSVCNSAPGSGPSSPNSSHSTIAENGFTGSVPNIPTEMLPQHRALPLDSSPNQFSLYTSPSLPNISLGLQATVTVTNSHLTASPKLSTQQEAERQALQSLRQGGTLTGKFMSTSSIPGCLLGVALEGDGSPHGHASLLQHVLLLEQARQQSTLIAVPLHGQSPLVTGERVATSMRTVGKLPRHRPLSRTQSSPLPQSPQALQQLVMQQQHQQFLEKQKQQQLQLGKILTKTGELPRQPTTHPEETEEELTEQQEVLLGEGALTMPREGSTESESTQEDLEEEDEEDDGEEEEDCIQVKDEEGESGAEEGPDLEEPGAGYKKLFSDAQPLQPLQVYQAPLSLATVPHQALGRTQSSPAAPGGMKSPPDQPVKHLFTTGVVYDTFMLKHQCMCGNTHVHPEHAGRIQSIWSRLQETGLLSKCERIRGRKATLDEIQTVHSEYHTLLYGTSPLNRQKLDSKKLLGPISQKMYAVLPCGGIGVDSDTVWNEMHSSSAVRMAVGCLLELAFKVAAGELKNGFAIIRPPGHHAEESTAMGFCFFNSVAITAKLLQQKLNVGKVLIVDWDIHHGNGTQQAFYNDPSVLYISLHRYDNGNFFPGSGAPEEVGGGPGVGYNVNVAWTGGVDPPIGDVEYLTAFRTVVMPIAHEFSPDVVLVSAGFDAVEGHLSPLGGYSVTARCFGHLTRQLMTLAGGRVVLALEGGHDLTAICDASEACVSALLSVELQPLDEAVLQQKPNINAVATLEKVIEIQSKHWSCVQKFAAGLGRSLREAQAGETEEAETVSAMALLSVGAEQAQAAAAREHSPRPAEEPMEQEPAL
# Histone deacetylase 9 = Histone deacetylase 9 (Homo sapiens, UniProt Q9UKV0); assay: Inhibition of HDAC9
# Chain of Histone deacetylase 9 (Q9UKV0 whole entry): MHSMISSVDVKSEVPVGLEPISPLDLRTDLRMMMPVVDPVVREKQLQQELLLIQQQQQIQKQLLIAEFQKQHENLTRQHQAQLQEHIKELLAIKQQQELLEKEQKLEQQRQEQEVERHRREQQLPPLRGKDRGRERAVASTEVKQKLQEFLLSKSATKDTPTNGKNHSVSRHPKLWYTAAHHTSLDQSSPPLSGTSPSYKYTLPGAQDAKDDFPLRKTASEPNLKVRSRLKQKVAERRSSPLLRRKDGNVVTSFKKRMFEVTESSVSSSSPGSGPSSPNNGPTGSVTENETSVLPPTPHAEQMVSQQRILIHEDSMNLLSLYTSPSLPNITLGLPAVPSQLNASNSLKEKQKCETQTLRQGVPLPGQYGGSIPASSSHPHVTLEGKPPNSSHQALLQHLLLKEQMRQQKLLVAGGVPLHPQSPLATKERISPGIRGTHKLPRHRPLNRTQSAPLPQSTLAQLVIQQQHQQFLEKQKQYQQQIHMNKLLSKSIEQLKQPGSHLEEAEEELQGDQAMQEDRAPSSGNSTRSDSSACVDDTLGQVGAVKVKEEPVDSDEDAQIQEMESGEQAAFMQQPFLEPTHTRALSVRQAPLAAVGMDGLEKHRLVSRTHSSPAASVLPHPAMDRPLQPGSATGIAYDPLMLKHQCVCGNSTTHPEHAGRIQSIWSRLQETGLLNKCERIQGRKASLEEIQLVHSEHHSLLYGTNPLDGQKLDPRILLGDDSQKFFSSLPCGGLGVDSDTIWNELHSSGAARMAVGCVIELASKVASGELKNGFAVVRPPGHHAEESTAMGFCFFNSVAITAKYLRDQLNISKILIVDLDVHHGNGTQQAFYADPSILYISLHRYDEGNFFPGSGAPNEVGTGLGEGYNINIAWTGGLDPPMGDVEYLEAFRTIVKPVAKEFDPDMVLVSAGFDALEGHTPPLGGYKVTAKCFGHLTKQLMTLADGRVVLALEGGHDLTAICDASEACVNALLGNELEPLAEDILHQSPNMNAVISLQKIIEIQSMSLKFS
# [1] = molecular target: T2, Polyamine deacetylase HDAC10 (Homo sapiens, UniProt Q969S8); assay: Inhibition of HDAC10
# T2 sequence (Q969S8 whole entry): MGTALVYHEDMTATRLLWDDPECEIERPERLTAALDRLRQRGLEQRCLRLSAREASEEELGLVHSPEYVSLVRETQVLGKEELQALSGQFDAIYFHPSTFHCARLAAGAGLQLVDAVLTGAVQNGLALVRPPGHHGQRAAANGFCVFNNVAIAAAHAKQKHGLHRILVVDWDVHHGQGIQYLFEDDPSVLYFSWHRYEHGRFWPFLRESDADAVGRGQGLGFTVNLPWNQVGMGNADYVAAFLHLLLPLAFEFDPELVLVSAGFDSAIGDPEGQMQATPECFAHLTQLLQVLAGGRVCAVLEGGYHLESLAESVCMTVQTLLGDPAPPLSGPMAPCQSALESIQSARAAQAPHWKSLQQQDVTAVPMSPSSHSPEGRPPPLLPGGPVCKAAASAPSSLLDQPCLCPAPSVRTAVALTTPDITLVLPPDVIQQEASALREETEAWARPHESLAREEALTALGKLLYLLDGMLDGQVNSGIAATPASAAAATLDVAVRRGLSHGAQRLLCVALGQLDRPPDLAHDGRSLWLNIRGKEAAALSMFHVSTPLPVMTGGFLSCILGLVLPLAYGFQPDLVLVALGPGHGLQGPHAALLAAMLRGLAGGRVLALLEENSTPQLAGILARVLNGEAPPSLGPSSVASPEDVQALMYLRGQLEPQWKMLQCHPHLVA
# A2780 = assay: Antiproliferative activity against human A2780 cells; assay type: functional, cell-based
# PC-3 [2] = assay: Antiproliferative activity against human PC3 cells; assay type: functional, cell-based
# [3] = Solubility at pH 7; assay type: physicochemical; conditions: buffer
# [4] = Thermodynamic solubility at pH 7.4; assay type: physicochemical; conditions: buffer, read-out: Therm_solubility
# [5] = Half life in human liver microsome; assay type: ADME; conditions: liver microsomes
# [6] = Half life in rat liver microsome; assay type: ADME; conditions: liver microsomes
# [7] = Half life in mouse liver microsome; assay type: ADME; conditions: liver microsomes
# NCI-H522 = assay: Antiproliferative activity against human NCI-H522 cells; assay type: functional, cell-based
# Ramos = assay: Antiproliferative activity against human Ramos cells; assay type: functional, cell-based
# Histone deacetylase 1 [8] = molecular target: T3, Histone deacetylase 1 (Homo sapiens, UniProt Q13547); assay: Inhibition of HDAC1 in human COLO205 cells assessed as induction of histone H3 acetylation at 10 uM by Western-immuno blotting; assay type: cell-based; conditions: COLO 205
# T3 sequence (Q13547 whole entry): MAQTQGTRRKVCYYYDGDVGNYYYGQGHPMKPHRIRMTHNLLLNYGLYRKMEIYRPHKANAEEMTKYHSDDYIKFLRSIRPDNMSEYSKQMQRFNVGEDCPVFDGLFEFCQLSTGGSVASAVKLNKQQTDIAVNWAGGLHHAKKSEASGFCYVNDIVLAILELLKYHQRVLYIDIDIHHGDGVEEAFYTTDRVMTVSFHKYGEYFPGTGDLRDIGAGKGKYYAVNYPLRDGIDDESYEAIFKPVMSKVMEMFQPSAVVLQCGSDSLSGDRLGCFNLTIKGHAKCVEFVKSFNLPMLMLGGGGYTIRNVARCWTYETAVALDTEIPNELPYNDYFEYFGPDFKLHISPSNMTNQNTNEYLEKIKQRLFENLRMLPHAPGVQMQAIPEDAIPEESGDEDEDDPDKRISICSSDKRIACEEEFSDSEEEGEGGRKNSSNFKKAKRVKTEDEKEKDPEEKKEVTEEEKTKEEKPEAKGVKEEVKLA
# [9] = Apparent permeability from apical to basolateral side of Caco-2 cells; assay type: ADME, cell-based; conditions: human
# [10] = Clearance in mouse at 10 mg/kg, iv; assay type: ADME, organism-based; set-up: dose 10 mg/kg, route intravenous; conditions: in vivo
# [11] = Volume of distribution at steady state in mouse at 10 mg/kg, iv; assay type: ADME, organism-based; set-up: dose 10 mg/kg, route intravenous; conditions: in vivo, read-out: Vdss
# [12] = Toxicity in human PC3 cells xenografted nude mouse; assay type: organism-based, PC-3; conditions: in vivo
# HCT-116 = assay: Antitumor activity against human HCT116 cells xenografted in BALB/c mouse at 100 mg/kg, po after 21 days; assay type: functional; conditions: HCT-116, 504 h, read-out: TGI
# PC-3 [13] = assay: animal or person; assay type: functional, Homo sapiens; conditions: Mus musculus, PC-3, ip, route intraperitoneal, read-out: TGI
# Mus musculus = assay: Toxicity in human HCT116 cells xenografted BALB/c mouse at 200 mg/kg, po; assay type: organism-based, HCT-116; set-up: dose 200 mg/kg, route oral; conditions: in vivo
# [14] = Cmax in mouse plasma at 50 mg/kg, po; assay type: ADME, organism-based; set-up: dose 50 mg/kg, route oral
# Histone deacetylase 1 [15] = molecular target: T3, Histone deacetylase 1
# Histone deacetylase 1 [16] = molecular target: T3, Histone deacetylase 1; remark: listed apart in the source
# [17] = Oral bioavailability in mouse at 50 mg/kg, po; conditions: in vivo
smiles,measurement,setting,value
O=C(CCCCCNC(=O)NC(=O)c1ccccc1)NO,IC50,Histone deacetylase 8,608 nM
same,Ki,Histone deacetylase 8,252 nM
same,Ki,Histone deacetylase 2,44 nM
same,Ki,Histone deacetylase 3,23 nM
same,Ki,Histone deacetylase 5,46 nM
same,Ki,Histone deacetylase 9,55 nM
same,Ki,[1],40 nM
same,IC50,A2780,700 nM
same,IC50,PC-3 [2],740 nM
same,solubility,[3],177 µM
same,solubility thermodynamic,[4],526 µg/mL
same,half-life,[5],> 1 h
same,half-life,[6],> 1 h
same,half-life,[7],> 0.5 h
same,IC50,NCI-H522,500 nM
same,IC50,Ramos,460 nM
same,Activity,Histone deacetylase 1 [8],Active
same,Papp A→B,[9],3.12 ×10⁻⁶ cm/s
same,clearance,[10],83.8 mL/min/kg
same,Vd,[11],2.16 L/kg
same,MTD,[12],200 mg/kg
same,inhibition in vivo at 100 mg/kg,HCT-116,80%
same,inhibition in vivo at 160 mg/kg,PC-3 [13],57%
same,Activity,Mus musculus,Toxic
same,Cmax,[14],22.4 µM
same,IC50,Histone deacetylase 1 [15],53 nM
same,Ki,Histone deacetylase 1 [15],16 nM
same,IC50,Histone deacetylase 1 [16],2210 nM
same,bioavailability,[17],62%
